Source: PMC12040169 (PLOS Biology, 2025)

Test: in vitro
Settings: human, hela cells, % viability

Row | SMILES | viability at 28.5 h, 10 µM
1 | CCOC(=O)C1CCN(c2cccc(F)c2C#N)CC1 [CBK304558] | 101%
2 | O=C(NCC(c1ccco1)N1CCCC1)C1CCCCC1 (stereo not drawn) [CBK304560] | 88.7%
3 | Cc1sc2ncn(CC(=O)NC3CCOc4ccccc43)c(=O)c2c1C (stereo not drawn) [CBK304562] | 86.3%
4 | CC(C)(C)CC(NC(=O)C1CCCN(S(C)(=O)=O)C1)c1ccccc1 (stereo not drawn) [CBK304563] | 90.6%
5 | Cc1ccccc1CC(=O)NCC(c1ccccc1Cl)N1CCOCC1 (stereo not drawn) [CBK304564] | 85.3%
6 | O=C(Cn1ccc(=O)[nH]c1=O)NCc1cccnc1OCC(F)(F)F [CBK304565] | 90.5%
7 | N#CC1(NC(=O)c2ccn(-c3cccc(F)c3)n2)CCSC1 (stereo not drawn) [CBK304566] | 106%
8 | COc1ccc(CCNC(=O)CN2CCCC2Cn2cncn2)cc1 (stereo not drawn) [CBK304567] | 115%
9 | COc1cc(C(=O)Nc2ncccc2OCCCC#N)ccc1C [CBK304568] | 85.7%
10 | COc1cc(C)nc(N2CCN(C(=O)CCc3ccsc3)CC2)n1 [CBK304572] | 87.6%
11 | Cc1ccc(N2CCCN(C(=O)CCc3ccsc3)CC2)nn1 [CBK304573] | 91.1%
12 | O=C(O)c1ccc(Cl)c(S(=O)(=O)NCc2ccco2)c1 [CBK304575] | 105%
13 | Nc1cc(=O)[nH]c(SCC(=O)N2CCCc3ccccc32)n1 [CBK304576] | 94.1%
14 | O=C(c1cc(S(=O)(=O)N2CCOCC2)ccc1Cl)N1CCCCC1CO (stereo not drawn) [CBK304579] | 88.6%
15 | CN(C(=O)c1cc(S(=O)(=O)N2CCOCC2)ccc1F)C1CCCCC1 [CBK304580] | 114%
16 | O=C(Nc1nc2ccccc2[nH]1)c1ccc(N2CCCS2(=O)=O)cc1 [CBK304582] | 98.6%
17 | CC(=O)Nc1cccc(C(=O)NCC(c2cccs2)N(C)C)c1 (stereo not drawn) [CBK304583] | 86.7%
18 | O=C(Nc1nc2ccccc2[nH]1)c1cccc(N2CCCS2(=O)=O)c1 [CBK304584] | 100%
19 | COc1ccccc1CN(C)C(=O)CCc1ccc(S(N)(=O)=O)cc1 [CBK304585] | 86.8%
20 | COc1ccccc1C(CNC(=O)Nc1cc(C)on1)N1CCCC1 (stereo not drawn) [CBK304586] | 94.5%
21 | CCCS(=O)(=O)NC1CCN(c2nc(C(F)(F)F)nc3[nH]cnc23)CC1 [CBK304587] | 105%
22 | CCS(=O)(=O)NC1CCN(c2nc(C(F)(F)F)nc3[nH]cnc23)CC1 [CBK304588] | 86.8%

Row | SMILES | viability at 28.5 h, 10 µM
23 | CC(=O)Nc1cccc(-n2c(C)nnc2SCC2CCCCC2)c1 [CBK304590] | 86.3%
24 | CCCS(=O)(=O)NC1CCN(c2nc(C(F)(F)F)nc3ccsc23)CC1 [CBK304591] | 87%
25 | CS(=O)(=O)N1CCc2cc(-c3csc(N)n3)ccc21 [CBK304596] | 102%
26 | CN(Cc1ccc(F)cc1F)C(=O)Cn1nc2n(c1=O)CCCCC2 [CBK304598] | 86.3%
27 | CC(=O)Nc1cccc(-n2nnnc2SC2CCCCC2=O)c1 (stereo not drawn) [CBK304600] | 95.4%
28 | COc1ccc(CNC(=O)c2cc(S(=O)(=O)N3CCCC3)c[nH]2)cc1 [CBK304601] | 102%
29 | CC(C)n1nnnc1SCCC(=O)N1CCN(c2ccc(F)cc2)CC1 [CBK304602] | 95.5%
30 | COC1(CNC(=O)c2cc3ccccc3[nH]2)CCSC1 (stereo not drawn) [CBK304605] | 97.9%
31 | Cn1ccnc1C1CCN(C(=O)NCc2cccc(F)c2)CC1 [CBK304606] | 91.3%
32 | COc1ccnc(N2CCN(C(=O)c3c4c(nn3C)CCCC4)CC2)n1 [CBK304609] | 118%
33 | CCn1cc(Cl)c(C(=O)NC2CCN(c3nc(C)cc(=O)[nH]3)CC2)n1 [CBK304614] | 88.5%
34 | Cc1cc(C(F)(F)F)nn1CC(=O)Nc1sc2c(c1C#N)CCC(C)C2 (stereo not drawn) [CBK304619] | 92.1%
35 | CCCOC1CCCN(C(=O)c2cncc(F)c2)C1 (stereo not drawn) [CBK304623] | 95%
36 | COCC1CCCN(Cc2ccc(Br)cc2)C1 (stereo not drawn) [CBK304624] | 108%
37 | COCCOc1ccc(C(=O)N2CCN(c3ccccc3)CC2)cc1 [CBK304626] | 106%
38 | O=C(NCCN1CCOCC1)C1CCN(C(=O)c2cccc(F)c2)CC1 [CBK304627] | 85.8%
39 | COc1cccc(OCC(=O)NCC(c2ccsc2)N2CCCC2)c1 (stereo not drawn) [CBK304630] | 89.6%
40 | COCCN1CCC(CNC(=O)Nc2cc(C)ccc2F)C1 (stereo not drawn) [CBK304631] | 117%
41 | O=C(NCCOc1ccccc1F)C1CC(=O)N(Cc2ccccn2)C1 (stereo not drawn) [CBK304632] | 104%
42 | O=C(NCC1CCCO1)C1CCN(C(=O)c2cccc(F)c2)CC1 (stereo not drawn) [CBK304633] | 90.5%
43 | CCCn1cc(C(=O)NCC2CCN(c3ccccc3F)C2)c(C)n1 (stereo not drawn) [CBK304634] | 79%
44 | Cn1cc(CCC(=O)N2CCc3[nH]c4ccc(Cl)cc4c3C2)cn1 [CBK304636] | 82%

Row | SMILES | viability at 28.5 h, 10 µM
45 | O=C(CCCn1cccn1)N1CCOC(c2ccc(Cl)c(Cl)c2)C1 (stereo not drawn) [CBK304640] | 98.5%
46 | O=C(CCCn1cccn1)N1CCCN(Cc2ccc(F)cc2)CC1 [CBK304641] | 99.7%
47 | O=C(NC1CCS(=O)(=O)C1)c1cnc2c(Cl)cccc2c1O (stereo not drawn) [CBK304644] | 87.4%
48 | O=C(Nc1sc2c(c1C(=O)N1CCOCC1)CCCC2)c1cccs1 [CBK304649] | 92.9%
49 | Cc1ccc(Cl)c(OC(C)C(=O)N2CCN(c3ccccn3)CC2)c1 (stereo not drawn) [CBK304650] | 90.4%
50 | O=C(Cn1cnc2c(c1=O)CCCC2)Nc1ccc(Cl)c(Cl)c1 [CBK304655] | 102%
51 | CC(CNS(=O)(=O)c1ccc(N2CCCC2=O)cc1)Cn1cccn1 (stereo not drawn) [CBK304656] | 87.7%
52 | CC(=O)Nc1ccc(F)c(NC(=O)NCCC2CCCN2C)c1 (stereo not drawn) [CBK304661] | 101%
53 | CCCCC(=O)Nc1ccc(C(=O)N2CCN(C)CC2)cc1 [CBK304662] | 105%
54 | COc1cccc(C(=O)NCCC(=O)N2CCN(C)CC2)c1 [CBK304663] | 95.4%
55 | CCOC(=O)c1cc(S(=O)(=O)NC2CCN(C(=O)OCC)CC2)cn1C [CBK304665] | 90.1%
56 | CCOC(=O)N1CCC(NS(=O)(=O)c2ccc3c(c2)oc(=O)n3C)CC1 [CBK304666] | 84.5%
57 | CCOC(=O)N1CCN(S(=O)(=O)c2ccc3c(c2)oc(=O)n3C)CC1 [CBK304667] | 105%
58 | Cc1nc(S(=O)(=O)N2CCC(OCC3CC3)C2)cn1C (stereo not drawn) [CBK304668] | 102%
59 | CC1=CCN(C(=O)c2cccc(S(=O)(=O)NCC3CCCO3)c2)CC1 (stereo not drawn) [CBK304669] | 95.5%
60 | CCC(CO)NCc1ccc(OCC(N)=O)cc1 (stereo not drawn) [CBK304670] | 100%
61 | Cc1ncsc1CCC(=O)NCC1CCN(c2ccccc2F)C1 (stereo not drawn) [CBK304675] | 96.5%
62 | O=C(c1csc(-c2ccccc2)n1)N1CCn2nc(C3CC3)cc2C1 [CBK304676] | 95.9%
63 | Cc1cnccc1N1CCN(C(=O)CCCOc2ccccc2)CC1 [CBK304677] | 94.8%
64 | Cc1cc(C)n(CCC(=O)N2CCCCC2C(=O)O)n1 (stereo not drawn) [CBK304678] | 103%
65 | CCOC(=O)N1CCN(S(=O)(=O)c2ccc3[nH]c(=O)oc3c2)CC1 [CBK304679] | 105%
66 | Cc1ccn(-c2ccc(N3CCNCC3)nn2)n1 [CBK304680] | 97.4%
